Measured values published in patent US20220008359A1, “COMBINATION ANTI-CANCER PRODUCTS AND METHODS” (priority 2020, published 2022).
Marks after values point to notes of the source that are not given here.

System: afatinib-resistant (AR) H1975 cells
Test: In-cell immunostaining of protein expression and phosphorylation, afatinib-resistant H1975 cells
Format: cell-based, human
Settings: 1975 AR; 6 h; GZ17-6.02 2 mM final curcumin, pemetrexed 500 nM; vehicle 100%
Method: […] Cells were fixed in place 6 hours after treatment and immunostaining of single cells performed to determine the levels of each protein/phosphor-protein (n=3+/−SD). * p<0.05 less than vehicle control; # p<0.05 greater than vehicle control.
Generation of erlotinib, afatinib and osimertinib-resistant cells. Cells were incubated in vitro with increasing concentrations of vehicle control or erlotinib or osimertinib until after ˜6 weeks the HCC827 and H1975 and H1650 cells grew with similar kinetics to sensitive cells in either erlotinib ([…]) or osimertinib ([…]), respectively. Afatinib-resistant cells were created in vivo by repeated high dosing until tumors disappeared and then regrew, as previously described.
Assessments of protein expression and protein phosphorylation. Multi-channel fluorescence HCS microscopes perform true in-cell western blotting. Three independent cultures derived from three thawed vials of cells of a tumor were sub-cultured into individual 96-well plates. Twenty-four hours after plating, the cells are transfected with a control plasmid or a control siRNA, or with an empty vector plasmid or with plasmids to express various proteins. After another 24 hours, the cells are ready for drug exposure(s). At various time-points after the initiation of drug exposure, cells are fixed in place using paraformaldehyde and using Triton X100 for permeabilization. Standard immunofluorescent blocking procedures are employed, followed by incubation of different wells with a variety of validated primary antibodies and subsequently validated fluorescent-tagged secondary antibodies are added to each well. The microscope determines the background fluorescence in the well and in parallel randomly determines the mean fluorescent intensity of 100 cells per well.

`Nc1nc2[nH]cc(CCc3ccc(C(=O)N[C@@H](CCC(=O)O)C(=O)O)cc3)c2c(=O)[nH]1` [PEM, Pemetrexed] was tested, and the ATG5 was 107%, the Beclin1 was 111% and the CD95 was 101%. The CHOP was 104%, the ERBB1 was 101% and the ERBB2 was 100%. The ERBB3 was 99%, the ERBB4 was 100% and the ERK2 was 99%. It also gave an FAS-L of 108%, a GRP78 of 109% and a JAK2 of 100%. The “P-AKT T308” value was 88%, the “P-AMPKα T172” value was 107% and the “P-ATG13 S318” value was 105%. For the same molecule, the “P-ATM S1980” value was 108%, the P-B1 was 93% and the P-B2 was 97%. The P-B3 was 97%, the P-B4 was 96% and the P-ERK1/2 was 98%. The P-JAK2 was 87* %, the “P-NFκB S536” value was 98% and the P-PDGFRβ was 84* %. The “P-PERK T980” value was 102%, the “P-SRC Y416” value was 92% and the “P-SRC Y527” value was 109%. The “P-STAT3 Y705” value was 95%, the “P-STAT5 Y694” value was 94% and the “P-ULK1 S317” value was 105%. For the same molecule, the “P-ULK1 S757” value was 95%, the P-c-MET was 102% and the P-c-MT was 88%. For the same molecule, the “P-eIF2α S51” value was 103%, the “P-mTOR S2448” value was 95% and the “P-mTOR S2481” value was 83* %. For the same molecule, the PDGFRβ was 100%, the PP1 was 104% and the c-KIT was 101%. For the same molecule, the c-MET was 100%, the “p70 S6K” value was 100% and the “p70 S6K T389” value was 97%.
